Reference: patent US6451844B1, “Use of menthyl-2 pyrrolidone-5-carboxylate as an insect repellent” (Quest International BV, priority 1998, dated 2002)

System: Aedes aegypti
Assay: Insect repellency test (mosquitoes attempting to bite treated warmed membrane targets)
Type: in vivo
Details: for % Repellency initially / % Repellency After 1 Hour: neat compound, 30 microlitres on membrane, 27° C.; for % Repellency initially: 10 minute period directly after application; for % Repellency After 1 Hour: 10 minute period one hour after application
Description: Four test chambers were prepared using 300 mm 200 gauge […] tubing. The synthetic plastics tubing was attached to oblong stainless steel frames (150 mm by 150 mm by 900 mm) using double-sided adhesive tape. 200 mm squares of cotton netting were used to cover the ends of the chambers and were secured using adhesive tape. Mosquitoes (naive insects of the species Aedes aegypti, 4 to 7 days old) were introduced into each chamber 8 and the chambers 8 were kept in a separate room until the test was ready to begin. The exhaust fan which vents the room in which the test was performed was switched on. Four targets 5 (only two shown) were prepared as follows: double layers of semi-porous membrane were stretched over the open ends of four open ended glassware bulbs (diameter of open end 43 mm) and secured using elastic bands. Testing was carried out at 27° C. The membranes were kept moist and warmed above the ambient temperature throughout the test by passing a supply of water ([…]) through the glassware bulbs, so as to contact the inner surface of the membranes. […] This was repeated with two other membranes and the fourth membrane was left untreated as a control. The chambers 8 containing the mosquitoes were positioned so that each chamber had one netting end pressed against one of the targets 5. Glass partitions in the form of a cross 6 were used to separate each target 5 and chamber end from its neighbour. […] The separation of the membranes ensured that air passing over a particular membrane would pass through only one test chamber 8. The filters 2, 3 were used to remove volatile elements from the air passing over the mosquitoes; filter 2 contained activated charcoal and filter 3 contained a molecular sieve (Union Carbide type 5A zeolite). The material in each filter 2, 3 was held within the cells of a 25 mm thick sheet of aluminium honeycomb sandwiched between two sheets of stainless steel mesh held in an aluminium frame. The filters 2,3 were bolted by their frames to the inside of an aluminium tunnel such that air passing along the tunnel passed through the filters 2, 3. […] An electronic timer was used to project the date and time onto the screen, and the video recorder 14 was used to record the data. The mosquitoes in the test chambers 8 were activated by introduction of a human breath stimulus upwind of the targets 5 and the number of insects attempting to bite each target 5 over the next ten minute period was recorded. After ten minutes, the recording was stopped and the test chambers 8 removed from their position immediately downwind of the targets 5. […] The numbers of mosquitoes attempting to bite each of the targets 5 was noted every 10 seconds throughout each ten minute recording period. The 60 readings were used to produce a figure for the mean number of insects biting each target 5 during the ten minute test periods. The reading obtained for the untreated target 5 was used to give a measure of the basic avidity of the mosquitoes used in the test and this was taken into account when analysing the results. […] The above lotions were tested for insect repellency using the method outlined in Example 1.

Row | Structure (SMILES) | % Repellency initially | % Repellency After 1 Hour | insect repellent effectiveness (in words) (compared with hydrolysis product menthol, maintained for at least 1 hour after application to a substrate)
1 | CC1CCC(C(C)C)C(O)C1 (stereo not shown) [Menthol, menthol] | 49% | 25% | –
2 | CCN(CC)C(=O)c1cccc(C)c1 [DEET, N,N-diethyl-m-toluamide] | 93% | 75% | –
3 | CC1CCC(C(C)C)C(OC(=O)C2CCC(=O)N2)C1 (stereo not shown) [Menthyl 2-pyrrolidone-5-carboxylate] | 80% | 59% | more effective insect repellent than its hydrolysis product, menthol
